For data set [1], the system named is RAW264.7. Description: Cytotoxicity against mouse RAW264.7 cells assessed as reduction in cell viability at 20 uM incubated for 24 hrs by MTT assay. It counts as toxicity, cell-based. The note with it: raw264.7, 24 h.
In data set [2] the test system is RAW264.7. As to the kind of experiment: Anti-inflammatory activity in mouse RAW264.7 cells assessed as inhibition of LPS-induced NO production incubated pretreated with compound for 1 hr followed by LPS-induction and measured after 24 hrs by Griess reagent based assay. It counts as functional, cell-based.
A short description of data set [3]: Cytotoxicity against mouse RAW264.7 cells assessed as reduction in cell viability at 20 uM incubated for 24 hrs in absence of LPS by MTT assay. It counts as toxicity, cell-based.
For data set [4], the system named is RAW264.7. Description: Anti-inflammatory activity in mouse RAW264.7 cells assessed as inhibition of LPS-induced NO production at 10 uM incubated pretreated with compound for 1 hr followed by LPS-induction and measured after 24 hrs by Griess reagent based assay relative to control. It counts as functional. To be noted: time 25 hrs.
A short description of data set [5]: Cytotoxicity against mouse RAW264.7 cells assessed as reduction in cell viability at 20 uM incubated for 24 hrs in presence of LPS by MTT assay. It counts as toxicity, cell-based.
Data set [6] is described as follows: Toxicity in C57BL/6 mouse assessed as body weight loss at 200 mg/kg, po measured for 7 days. It counts as organism-based. The note with it: in vivo, 168 h, time 7 day.

The structures appear in SMILES notation. Bounds are passed on as bounds.

Data on 41 molecules can be found in ChEMBL document CHEMBL5532652, “Design and synthesis of pterostilbene derivatives bearing triazole moiety that might treat DSS-induced colitis in mice through modulation of NF-κB/MAPK signaling pathways” (Eur J Med Chem, 2024).

As for `COc1cc(/C=C/c2ccc(OCC3CC3)cc2)c(-c2cnn[nH]2)c(OC)c1`, the Activity result in data set [1] is given as “Non-Toxic”.

For the molecule `C=CCCCOc1ccc(/C=C/c2cc(OC)cc(OC)c2-c2cnnn2C(=O)NCCc2ccccc2)cc1`, the half-inhibitory concentration (IC50) in data set [2] was 6.5 µM. Also, the IC50 at 24 h in data set [3] and in data set [5] was over 50 µM each time. Further, in data set [4], the inhibition at 10 µM turned out to be 67.8%.

Regarding `C=CCCOc1ccc(/C=C/c2cc(OC)cc(OC)c2-c2cnnn2C(=O)NC(C)C)cc1`, the concentration for half-maximal inhibition (IC50) in data set [2] stood at 7.91 µM. Also, the 50% inhibitory concentration (IC50) at 24 h in data set [3] and in data set [5] was over 50 µM in each case. In addition, the inhibition at 10 µM in data set [4] was found to be 61.3%.

For `C=CCOc1ccc(/C=C/c2cc(OC)cc(OC)c2-c2cnnn2C(=O)NCCC)cc1`, the IC50 in data set [2] is 2.6 µM. Further, the half-inhibitory concentration (IC50) at 24 h in data set [3] and in data set [5] was over 50 µM each time. The inhibition at 10 µM in data set [4] amounted to 81.1%.

On to `C=CCCOc1ccc(/C=C/c2cc(OC)cc(OC)c2-c2cnnn2C(=O)NCCc2ccccc2)cc1`, for which, in data set [2], the IC50 was 9.46 µM. For the same molecule, the half-maximal inhibitory concentration (IC50) at 24 h in data set [3] and in data set [5] was over 50 µM throughout. Also, the inhibition at 10 µM in data set [4] worked out at 64.6%.

As to `COCCCCOc1ccc(/C=C/c2cc(OC)cc(OC)c2-c2cnn[nH]2)cc1`, the Activity entry in data set [1] is on record as “Non-Toxic”.

Consider `COc1ccc(/C=C/c2cc(OC)cc(OC)c2-c2cnn[nH]2)cc1`, for which the Activity entry in data set [1] was “Non-Toxic”.

On to `C=CCCCOc1ccc(/C=C/c2cc(OC)cc(OC)c2-c2cnn[nH]2)cc1`, for which the concentration for half-maximal inhibition (IC50) in data set [2] came to 6.18 µM. Moreover, the IC50 at 24 h in data set [3] and in data set [5] was over 50 µM in each case. Further, the inhibition at 10 µM in data set [4] turned out to be 62.2%. In addition, in data set [1], the Activity entry is recorded as “Non-Toxic”.

As to `C=CCCOc1ccc(/C=C/c2cc(OC)cc(OC)c2-c2cnnn2C(=O)NCCC)cc1`, the IC50 in data set [2] was 3.15 µM. Further, the half-maximal inhibitory concentration (IC50) at 24 h in data set [3] and in data set [5] was over 50 µM throughout. In data set [4], the inhibition at 10 µM came out at 72.7%.

For `CCOc1ccc(/C=C/c2cc(OC)cc(OC)c2-c2cnn[nH]2)cc1`, in data set [1], the Activity entry is recorded as “Non-Toxic”.

As to `C=CCCCOc1ccc(/C=C/c2cc(OC)cc(OC)c2-c2cnnn2C(=O)NC(C)C)cc1`, the 50% inhibitory concentration (IC50) in data set [2] amounted to 9.83 µM. Besides, the IC50 at 24 h in data set [3] and in data set [5] was over 50 µM each time. Besides, in data set [4], the inhibition at 10 µM came to 53.4%.

Consider `C=C(C)COc1ccc(/C=C/c2cc(OC)cc(OC)c2-c2cnnn2C(=O)NCC)cc1`, for which the half-maximal inhibitory concentration (IC50) in data set [2] came out at 15.2 µM. The 50% inhibitory concentration (IC50) at 24 h in data set [3] and in data set [5] was over 50 µM throughout. For the same molecule, in data set [4], the inhibition at 10 µM was found to be 43.6%.

Turning to `C=CCCCOc1ccc(/C=C/c2cc(OC)cc(OC)c2-c2cnnn2C(=O)NCCCC)cc1`, the IC50 in data set [2] came to 8.66 µM. In addition, the half-maximal inhibitory concentration (IC50) at 24 h in data set [3] and in data set [5] was over 50 µM in each case. In data set [4], the inhibition at 10 µM was found to be 60%.

On to `COc1cc(/C=C/c2ccc(OCc3ccc(Br)cc3)cc2)c(-c2cnn[nH]2)c(OC)c1`, for which the Activity result in data set [1] is given as “Non-Toxic”.

With `C=C(C)COc1ccc(/C=C/c2cc(OC)cc(OC)c2-c2cnn[nH]2)cc1`, the concentration for half-maximal inhibition (IC50) in data set [2] was found to be 7.15 µM. For the same molecule, the IC50 at 24 h in data set [3] and in data set [5] was over 50 µM each time. The inhibition at 10 µM in data set [4] stood at 74.2%. Moreover, the Activity entry in data set [1] is on record as “Non-Toxic”.

In the case of `C=C(C)COc1ccc(/C=C/c2cc(OC)cc(OC)c2-c2cnnn2C(=O)NCCc2ccccc2)cc1`, in data set [2], the IC50 worked out at 14.9 µM. Further, the 50% inhibitory concentration (IC50) at 24 h in data set [3] and in data set [5] was over 50 µM throughout. The inhibition at 10 µM in data set [4] was 42.6%.

As to `C=CCCCOc1ccc(/C=C/c2cc(OC)cc(OC)c2-c2cnnn2C(=O)NCCCl)cc1`, the IC50 in data set [2] amounted to 2 µM. Moreover, the IC50 at 24 h in data set [3] and in data set [5] was over 50 µM in each case. In addition, the inhibition at 10 µM in data set [4] is 85.9%.

Regarding `O=C(O)c1cc(/N=N/c2ccc(S(=O)(=O)Nc3ccccn3)cc2)ccc1O` [SULFASALAZINE], the Activity entry in data set [6] is “Non-Toxic”.

As to `COc1cc(/C=C/c2ccc(OCCc3ccccc3)cc2)c(-c2cnn[nH]2)c(OC)c1`, the Activity result in data set [1] is “Non-Toxic”.

On to `COc1cc(/C=C/c2ccc(OCc3ccc(OC(F)(F)F)cc3)cc2)c(-c2cnn[nH]2)c(OC)c1`, for which the Activity entry in data set [1] was “Non-Toxic”.

For the molecule `C=CCCOc1ccc(/C=C/c2cc(OC)cc(OC)c2-c2cnnn2C(=O)NCCCC)cc1`, the 50% inhibitory concentration (IC50) in data set [2] came to 10.4 µM. Besides, the IC50 at 24 h in data set [3] and in data set [5] was over 50 µM throughout. In addition, the inhibition at 10 µM in data set [4] was 50.6%.

As for `C=CCCOc1ccc(/C=C/c2cc(OC)cc(OC)c2-c2cnnn2C(=O)NCC)cc1`, in data set [2], the half-maximal inhibitory concentration (IC50) turned out to be 13.4 µM. Moreover, the IC50 at 24 h in data set [3] and in data set [5] was over 50 µM throughout. In data set [4], the inhibition at 10 µM was found to be 46.3%.

In the case of `C=CCOc1ccc(/C=C/c2cc(OC)cc(OC)c2-c2cnnn2C(=O)NCCCC)cc1`, in data set [2], the IC50 was 11.7 µM. In addition, the IC50 at 24 h in data set [3] and in data set [5] was over 50 µM throughout. Moreover, in data set [4], the inhibition at 10 µM is 50%.

Turning to `C=CCOc1ccc(/C=C/c2cc(OC)cc(OC)c2-c2cnnn2C(=O)NCCc2ccccc2)cc1`, in data set [2], the half-inhibitory concentration (IC50) was 14 µM. Further, the IC50 at 24 h in data set [3] and in data set [5] was over 50 µM each time. For the same molecule, the inhibition at 10 µM in data set [4] is 45.3%.

In the case of `C=CCOc1ccc(/C=C/c2cc(OC)cc(OC)c2-c2cnn[nH]2)cc1`, in data set [2], the half-maximal inhibitory concentration (IC50) was 10.8 µM. Also, the half-inhibitory concentration (IC50) at 24 h in data set [3] and in data set [5] was over 50 µM throughout. Besides, the inhibition at 10 µM in data set [4] is 53.7%. For the same molecule, the Activity result in data set [1] is given as “Non-Toxic”.

Consider `COc1cc(/C=C/c2ccc(OC(=O)N(C)C)cc2)c(-c2cnn[nH]2)c(OC)c1`, for which the Activity result in data set [1] is listed as “Non-Toxic”.

Regarding `C=CCCOc1ccc(/C=C/c2cc(OC)cc(OC)c2-c2cnnn2C(=O)NCCCl)cc1`, the IC50 in data set [2] is 1.4 µM. Also, the concentration for half-maximal inhibition (IC50) at 24 h in data set [3] and in data set [5] was over 50 µM throughout. Also, the inhibition at 10 µM in data set [4] was determined as 96.9%.

For `C=C(C)COc1ccc(/C=C/c2cc(OC)cc(OC)c2-c2cnnn2C(=O)NCCCC)cc1`, the IC50 in data set [2] came out at 12.8 µM. Besides, the IC50 at 24 h in data set [3] and in data set [5] was over 50 µM throughout. Further, in data set [4], the inhibition at 10 µM turned out to be 54.6%.

Regarding `COc1cc(/C=C/c2ccc(OCc3ccc(C)cc3)cc2)c(-c2cnn[nH]2)c(OC)c1`, in data set [1], the Activity result was “Non-Toxic”.

As to `C=CCCCOc1ccc(/C=C/c2cc(OC)cc(OC)c2-c2cnnn2C(=O)NCCC)cc1`, in data set [2], the concentration for half-maximal inhibition (IC50) was found to be 6.2 µM. The half-inhibitory concentration (IC50) at 24 h in data set [3] and in data set [5] was over 50 µM each time. The inhibition at 10 µM in data set [4] worked out at 55.5%.

Consider `C=CCOc1ccc(/C=C/c2cc(OC)cc(OC)c2-c2cnnn2C(=O)NC(C)C)cc1`, for which, in data set [2], the IC50 came out at 8 µM. Also, the IC50 at 24 h in data set [3] and in data set [5] was over 50 µM in each case. For the same molecule, the inhibition at 10 µM in data set [4] is 75%.

Take `CCOC(=O)COc1ccc(/C=C/c2cc(OC)cc(OC)c2-c2cnn[nH]2)cc1`: the Activity result in data set [1] is “Non-Toxic”.

Regarding `C=C(C)COc1ccc(/C=C/c2cc(OC)cc(OC)c2-c2cnnn2C(=O)NCCC)cc1`, the IC50 in data set [2] stood at 6.2 µM. Further, the IC50 at 24 h in data set [3] and in data set [5] was over 50 µM in each case. Also, in data set [4], the inhibition at 10 µM came to 77.5%.

As for `C=CCOc1ccc(/C=C/c2cc(OC)cc(OC)c2-c2cnnn2C(=O)NCC)cc1`, the IC50 in data set [2] stood at 8.16 µM. In addition, the IC50 at 24 h in data set [3] and in data set [5] was over 50 µM each time. The inhibition at 10 µM in data set [4] stood at 67.3%.

For `C=C(C)COc1ccc(/C=C/c2cc(OC)cc(OC)c2-c2cnnn2C(=O)NC(C)C)cc1`, the 50% inhibitory concentration (IC50) in data set [2] was determined as 16 µM. Besides, the IC50 at 24 h in data set [3] and in data set [5] was over 50 µM in each case. Also, in data set [4], the inhibition at 10 µM stood at 48.2%.

As to `CCOCCOc1ccc(/C=C/c2cc(OC)cc(OC)c2-c2cnn[nH]2)cc1`, the Activity entry in data set [1] is recorded as “Non-Toxic”.

Regarding `C=CCCOc1ccc(/C=C/c2cc(OC)cc(OC)c2-c2cnn[nH]2)cc1`, in data set [2], the concentration for half-maximal inhibition (IC50) was 14.4 µM. Moreover, the half-inhibitory concentration (IC50) at 24 h in data set [3] and in data set [5] was over 50 µM in each case. Besides, the inhibition at 10 µM in data set [4] was 46.9%. Besides, in data set [1], the Activity entry was “Non-Toxic”.

Turning to `C=CCCCOc1ccc(/C=C/c2cc(OC)cc(OC)c2-c2cnnn2C(=O)NCC)cc1`, the half-inhibitory concentration (IC50) in data set [2] came out at 12.3 µM. Besides, the IC50 at 24 h in data set [3] and in data set [5] was over 50 µM each time. Besides, the inhibition at 10 µM in data set [4] came to 49.6%.

`COc1cc(/C=C/c2ccc(OCC3CCCC3)cc2)c(-c2cnn[nH]2)c(OC)c1`: the Activity entry in data set [1] is “Non-Toxic”.

On to `COc1cc(/C=C/c2ccc(OCc3cc(F)cc(F)c3)cc2)c(-c2cnn[nH]2)c(OC)c1`, for which, in data set [1], the Activity entry was “Non-Toxic”.

With `CCCCOc1ccc(/C=C/c2cc(OC)cc(OC)c2-c2cnn[nH]2)cc1`, the Activity result in data set [1] is “Non-Toxic”.
